Format in all cases: in vivo
Test [1] concerns Glomerella lagenarium; Anamorph: Colletotricum lagenarium. The test can be described thus: Cucumber anthracnose (COLLLA) fungicidal activity. As to conditions: Colletotrichum orbiculare, 24 h, 1 Day Protectant, read-out: Disease Control COLLLA 1DP. The protocol:
Technical grades of materials were dissolved in acetone, which were then mixed with nine volumes of water containing 110 ppm Triton X-100. The fungicide solutions were applied onto wheat seedlings using an automated booth sprayer to run-off. All sprayed plants were allowed to air dry prior to further handling. Wheat plants (variety Yuma) were grown from seed in a greenhouse in 50% mineral soil/50% soil-less Metro mix until the first leaf was fully emerged, with 7-10 seedlings per pot. These plants were inoculated with an aqueous spore suspension of Septoria tritici either prior to or after fungicide treatments. After inoculation the plants were kept in 100% relative humidity (one day in a dark dew chamber followed by two to three days in a lighted dew chamber at 20° C.) to permit spores to germinate and infect the leaf. The plants were then transferred to a greenhouse set at 20° C. for disease to develop. When disease symptoms were fully expressed on the 1st leaves of untreated plants, infection levels were assessed on a scale of 0 to 100 percent disease severity. Percent disease control was calculated using the ratio of disease severity on treated plants relative to untreated plants. Evaluation of Fungicidal Activity: Cucumber Anthracnose (Glomerella Lagenarium; Anamorph: Colletotricum Lagenarium; Bayer Code COLLLA) Cucumber seedlings (variety Bush Pickle) were propagated in soil-less Metro mix, with each pot having one plant, and used in the test when 12 to 14 days old. Test plants were inoculated with an aqueous spore suspension of Colletotricum lagenarium 24 hr after fungicide treatments. After inoculation the plants were kept in a dew room at 22° C. with 100% relative humidity for 48 hr to permit spores to germinate and infect the leaf. The plants were then transferred to a growth room set at 22° C. for disease to develop. Fungicide formulation, application and disease assessment on the sprayed leaves followed the procedures as described in the Example A.

Test [2] deals with Blumeria graminis f. sp. hordei. The test can be described thus: Barley powdery mildew (ERYSGH) fungicidal activity. As to conditions: 24 h, 1 Day Protectant, read-out: Disease Control ERYSGH 1DP. The protocol:
Technical grades of materials were dissolved in acetone, which were then mixed with nine volumes of water containing 110 ppm Triton X-100. The fungicide solutions were applied onto wheat seedlings using an automated booth sprayer to run-off. All sprayed plants were allowed to air dry prior to further handling. Wheat plants (variety Yuma) were grown from seed in a greenhouse in 50% mineral soil/50% soil-less Metro mix until the first leaf was fully emerged, with 7-10 seedlings per pot. These plants were inoculated with an aqueous spore suspension of Septoria tritici either prior to or after fungicide treatments. After inoculation the plants were kept in 100% relative humidity (one day in a dark dew chamber followed by two to three days in a lighted dew chamber at 20° C.) to permit spores to germinate and infect the leaf. The plants were then transferred to a greenhouse set at 20° C. for disease to develop. When disease symptoms were fully expressed on the 1st leaves of untreated plants, infection levels were assessed on a scale of 0 to 100 percent disease severity. Percent disease control was calculated using the ratio of disease severity on treated plants relative to untreated plants. Evaluation of Fungicidal Activity: Barley Powdery Mildew (Blumeria Graminis f. sp. Hordei; Synonym: Erysiphe Graminis f. sp. Hordei; Bayer Code […]) Barley seedlings (variety Harrington) were propagated in soil-less Metro mix, with each pot having 8 to 12 plants, and used in the test when first leaf was fully emerged. Test plants were inoculated by dusting with infected stock plants 24 hr after fungicide treatments. After inoculation the plants were kept in a greenhouse set at 20° C. for disease to develop. Fungicide formulation, application and disease assessment on the sprayed leaves followed the procedures as described in the Example A.

The test system of another test is Venturia inaequalis. Kind of test: Apple scab (VENTIN) fungicidal activity. Particulars: 24 h, 1 Day Protectant, read-out: Disease Control VENTIN 1DP. Here is the method: Technical grades of materials were dissolved in acetone, which were then mixed with nine volumes of water containing 110 ppm Triton X-100. The fungicide solutions were applied onto wheat seedlings using an automated booth sprayer to run-off. All sprayed plants were allowed to air dry prior to further handling. Wheat plants (variety Yuma) were grown from seed in a greenhouse in 50% mineral soil/50% soil-less Metro mix until the first leaf was fully emerged, with 7-10 seedlings per pot. These plants were inoculated with an aqueous spore suspension of Septoria tritici either prior to or after fungicide treatments. After inoculation the plants were kept in 100% relative humidity (one day in a dark dew chamber followed by two to three days in a lighted dew chamber at 20° C.) to permit spores to germinate and infect the leaf. The plants were then transferred to a greenhouse set at 20° C. for disease to develop. When disease symptoms were fully expressed on the 1st leaves of untreated plants, infection levels were assessed on a scale of 0 to 100 percent disease severity. Percent disease control was calculated using the ratio of disease severity on treated plants relative to untreated plants. Evaluation of Fungicidal Activity: Apple Scab (Venturia Inaequalis; Bayer Code […]) Apple seedlings (variety McIntosh) were grown in soil-less Metro mix, with one plant per pot. Seedlings with two expanding young leaves at the top (older leaves at bottom of the plants were trimmed) were used in the test. Plants were inoculated with a spore suspension of Venturia inaequalis 24 hr after fungicide treatment and kept in a 22° C. dew chamber with 100% RH for 48 hr, and then moved to a greenhouse set at 20° C. for disease to develop. Fungicide formulation, application and disease assessment on the sprayed leaves followed the procedures as described in the Example A.

The test system of a further test is Puccinia triticina. The test can be described thus: Fungicide mobility (dropline mobility test), wheat brown rust (PUCCRT). As to conditions: 1 ug/leaf, disease-free zone as percent of distance from marked line to leaf tip; for Dropline Mobility Test PUCCRT 1 DPM: 1 Day Protectant Mobility; for Dropline Mobility Test PUCCRT 3 DCM: 3 Day Curative Mobility. The gist of the method: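 Yuma wheat primary leaves, held horizontal, got a 2 μl drop of EC-formulated compound in water with 110 ppm Triton X-100 on a line 5 cm from the tip; 6 replicates. Inoculation 1 day after or 3 days before application. Acropetal disease-free zone measured as percent of line-to-tip distance once control rust fully expressed.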

Turning to `CCCCCO[C@@H]1[C@@H](Cc2ccccc2)COC[C@H](NC(=O)c2nccc(OC)c2OCOC(C)=O)C(=O)O[C@H]1C` [Compound 26], the pest or weed control at 100 ppm (in test [1]; in test [2]; in the test on Venturia inaequalis) was 80 to 100% in each case. Moreover, the “Dropline Mobility Test PUCCRT 1 DPM” value in the test with Puccinia triticina is listed as “B (More than 0-Less than 80)”. Moreover, in the test on Puccinia triticina, the “Dropline Mobility Test PUCCRT 3 DCM” value is on record as “B (More than 0-Less than 80)”.

On to `COc1ccnc(C(=O)N[C@H]2COC[C@H](Cc3ccccc3)[C@@H](OCCCc3ccccc3)[C@H](C)OC2=O)c1OCOC(C)=O` [Compound 34], for which the pest or weed control at 100 ppm (in test [1]; in test [2]; in the test on Venturia inaequalis) was 80 to 100% each time. The “Dropline Mobility Test PUCCRT 1 DPM” value in the test on Puccinia triticina is given as “B (More than 0-Less than 80)”.

For `COC(=O)/C=C/O[C@@H]1[C@@H](Cc2ccccc2)COC[C@H](NC(=O)c2nccc(OC)c2OCOC(C)=O)C(=O)O[C@H]1C` [Compound 36], the pest or weed control at 100 ppm in test [1] is 80 to 100%; in test [2], 80 to 100%; in the test on Venturia inaequalis, 0 to 80%. The “Dropline Mobility Test PUCCRT 1 DPM” value in the test with Puccinia triticina is given as “B (More than 0-Less than 80)”. The “Dropline Mobility Test PUCCRT 3 DCM” value with Puccinia triticina is listed as “B (More than 0-Less than 80)”.

Take `COc1ccnc(C(=O)N[C@H]2COC[C@H](Cc3ccccc3)[C@@H](OC(=O)c3ccccc3)[C@H](C)OC2=O)c1OCOC(C)=O` [Compound 37]: the pest or weed control at 100 ppm in test [1] is 80 to 100%; in test [2] it was 0 to 80%; with Venturia inaequalis, 0 to 80%. In addition, the “Dropline Mobility Test PUCCRT 1 DPM” value in the test on Puccinia triticina is “B (More than 0-Less than 80)”.

Take `COc1ccnc(C(=O)N[C@H]2COC[C@H](Cc3ccccc3)[C@@H](OC(=O)C3CC3)[C@H](C)OC2=O)c1OCOC(C)=O` [Compound 38]: the pest or weed control at 100 ppm is 80 to 100% in test [1], 80 to 100% in test [2] and 0 to 80% in the test on Venturia inaequalis. The “Dropline Mobility Test PUCCRT 1 DPM” value in the test on Puccinia triticina was “B (More than 0-Less than 80)”. In addition, in the test with Puccinia triticina, the “Dropline Mobility Test PUCCRT 3 DCM” value was “B (More than 0-Less than 80)”.

Regarding `COc1ccnc(C(=O)N[C@H]2COC[C@H](Cc3ccccc3)[C@@H](OC)[C@H](C)OC2=O)c1OCOC(C)=O` [Compound 39], the pest or weed control at 100 ppm in test [1] was in the range of 80 to 100%; in test [2] it was 0 to 80%; with Venturia inaequalis it was 0 to 80%. Also, in the test with Puccinia triticina, the “Dropline Mobility Test PUCCRT 1 DPM” value is “A (80-100)”. In the test with Puccinia triticina, the “Dropline Mobility Test PUCCRT 3 DCM” value is “A (80-100)”.

Values taken from patent US8835462B2, “Macrocyclic picolinamides as fungicides” (Dow AgroSciences LLC, priority 2012, dated 2014).
